Target: nuclear receptor 4A1 (NR4A1, Nur77) (Homo sapiens, UniProt P22736)
Assay: Trp fluorescence quenching direct binding; also bis-ANS competitive displacement (Ki […])

nuclear receptor 4A1 (NR4A1, Nur77), sequence (P22736 351-598 limits assumed): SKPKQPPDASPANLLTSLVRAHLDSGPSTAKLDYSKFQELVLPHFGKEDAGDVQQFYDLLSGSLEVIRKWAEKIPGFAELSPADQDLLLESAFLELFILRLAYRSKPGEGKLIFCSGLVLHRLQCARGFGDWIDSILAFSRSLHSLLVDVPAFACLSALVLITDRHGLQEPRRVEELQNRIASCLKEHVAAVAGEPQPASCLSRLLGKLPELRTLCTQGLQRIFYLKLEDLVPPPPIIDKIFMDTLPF

O=c1c(O)c(-c2ccc(O)c(O)c2)oc2cc(O)cc(O)c12 [Q, quercetin]
Kd: 930 nM

Reference: article PMC8670039, “Flavonoids kaempferol and quercetin are nuclear receptor 4A1 (NR4A1, Nur77) ligands and inhibit rhabdomyosarcoma cell and tumor growth” (Journal of Experimental & Clinical Cancer Research : CR, 2021)
